Reference: PubChem BioAssay (NCI)
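Briefly, cells in 96-well plates were exposed to five compound concentrations for 48 h, and endpoints were estimated by linear interpolation. TGI is the concentration that stops growth completely.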

Tests used:
Experiment in all cases: inhibition of tumour cell growth, NCI panel, 48 h
786-0 renal = system: 786-0 renal
A498 renal = system: A498 renal
A549 NSCLC = system: A549 NSCLC
ACHN renal = system: ACHN renal
BT-549 breast = system: BT-549 breast
CCRF-CEM leukemia = system: CCRF-CEM leukemia
COLO 205 colon = system: COLO 205 colon
DU-145 prostate = system: DU-145 prostate
EKVX NSCLC = system: EKVX NSCLC
HCT-116 colon = system: HCT-116 colon
HCT-15 colon = system: HCT-15 colon
HL-60(TB) leukemia = system: HL-60(TB) leukemia
HOP-62 NSCLC = system: HOP-62 NSCLC
HOP-92 NSCLC = system: HOP-92 NSCLC
HS 578T breast = system: HS 578T breast
HT29 colon = system: HT29 colon
IGROV1 ovarian = system: IGROV1 ovarian
K-562 leukemia = system: K-562 leukemia
KM12 colon = system: KM12 colon
LOX IMVI melanoma = system: LOX IMVI melanoma
M14 melanoma = system: M14 melanoma
MALME-3M melanoma = system: MALME-3M melanoma
MCF7 breast = system: MCF7 breast
MDA-MB-435 = system: MDA-MB-435
MDA-N = system: MDA-N
MOLT-4 leukemia = system: MOLT-4 leukemia
NCI-H226 lung = system: NCI-H226 lung
NCI-H460 lung = system: NCI-H460 lung
NCI/ADR-RES ovarian = system: NCI/ADR-RES ovarian
OVCAR-3 ovarian = system: OVCAR-3 ovarian
OVCAR-4 ovarian = system: OVCAR-4 ovarian
OVCAR-5 ovarian = system: OVCAR-5 ovarian
OVCAR-8 ovarian = system: OVCAR-8 ovarian
PC-3 prostate = system: PC-3 prostate
RPMI-8226 leukemia = system: RPMI-8226 leukemia
RXF 393 renal = system: RXF 393 renal
SF-268 CNS = system: SF-268 CNS
SF-295 CNS = system: SF-295 CNS
SF-539 CNS = system: SF-539 CNS
SK-MEL-2 melanoma = system: SK-MEL-2 melanoma
SK-MEL-28 melanoma = system: SK-MEL-28 melanoma
SK-MEL-5 melanoma = system: SK-MEL-5 melanoma
SK-OV-3 ovarian = system: SK-OV-3 ovarian
SN12C renal = system: SN12C renal
SNB-19 CNS = system: SNB-19 CNS
SW-620 colon = system: SW-620 colon
T-47D breast = system: T-47D breast
TK-10 renal = system: TK-10 renal
U251 CNS = system: U251 CNS
UACC-257 melanoma = system: UACC-257 melanoma
UACC-62 melanoma = system: UACC-62 melanoma
UO-31 renal = system: UO-31 renal
CAKI-1 renal = system: CAKI-1 renal
HCC-2998 colon = system: HCC-2998 colon
MDA-MB-231 breast = system: MDA-MB-231 breast
NCI-H23 lung = system: NCI-H23 lung
NCI-H522 lung = system: NCI-H522 lung
SNB-75 CNS = system: SNB-75 CNS
SR leukemia = system: SR leukemia

For `CCOC(=O)c1nc2ccccc2nc1Oc1ccc(C#N)cc1`, the TGI (786-0 renal) was > 100 µM, the TGI (A498 renal) was > 100 µM and the TGI (A549 NSCLC) was > 100 µM. The TGI (ACHN renal) was > 100 µM, the TGI (BT-549 breast) was > 100 µM and the TGI (CCRF-CEM leukemia) was > 100 µM. The TGI (COLO 205 colon) was > 100 µM, the TGI (DU-145 prostate) was > 100 µM and the TGI (EKVX NSCLC) was > 100 µM. For the same compound, the TGI (HCT-116 colon) was > 100 µM, the TGI (HCT-15 colon) was > 100 µM and the TGI (HL-60(TB) leukemia) was > 100 µM. The TGI (HOP-62 NSCLC) was > 100 µM, the TGI (HOP-92 NSCLC) was > 100 µM and the TGI (HS 578T breast) was > 100 µM. For the same compound, the TGI (HT29 colon) was > 100 µM, the TGI (IGROV1 ovarian) was > 100 µM and the TGI (K-562 leukemia) was > 100 µM. For the same compound, the TGI (KM12 colon) was > 100 µM, the TGI (LOX IMVI melanoma) was > 100 µM and the TGI (M14 melanoma) was > 100 µM. For the same compound, the TGI (MALME-3M melanoma) was > 100 µM, the TGI (MCF7 breast) was > 100 µM and the TGI (MDA-MB-435) was > 100 µM. The TGI (MDA-N) was > 100 µM, the TGI (MOLT-4 leukemia) was > 100 µM and the TGI (NCI-H226 lung) was > 100 µM. For the same compound, the TGI (NCI-H460 lung) was > 100 µM, the TGI (NCI/ADR-RES ovarian) was > 100 µM and the TGI (OVCAR-3 ovarian) was > 100 µM. The TGI (OVCAR-4 ovarian) was > 100 µM, the TGI (OVCAR-5 ovarian) was > 100 µM and the TGI (OVCAR-8 ovarian) was > 100 µM. The TGI (PC-3 prostate) was > 100 µM, the TGI (RPMI-8226 leukemia) was > 100 µM and the TGI (RXF 393 renal) was > 100 µM. For the same compound, the TGI (SF-268 CNS) was > 100 µM, the TGI (SF-295 CNS) was > 100 µM and the TGI (SF-539 CNS) was > 100 µM. For the same compound, the TGI (SK-MEL-2 melanoma) was > 100 µM, the TGI (SK-MEL-28 melanoma) was > 100 µM and the TGI (SK-MEL-5 melanoma) was > 100 µM. The TGI (SK-OV-3 ovarian) was > 100 µM, the TGI (SN12C renal) was > 100 µM and the TGI (SNB-19 CNS) was > 100 µM. For the same compound, the TGI (SW-620 colon) was > 100 µM, the TGI (T-47D breast) was > 100 µM and the TGI (TK-10 renal) was > 100 µM. For the same compound, the TGI (U251 CNS) was > 100 µM, the TGI (UACC-257 melanoma) was > 100 µM and the TGI (UACC-62 melanoma) was > 100 µM. For the same compound, the TGI (UO-31 renal) was > 100 µM.

`CN1N=C(c2ccccc2)C(C(c2ccccc2[N+](=O)[O-])C2C(=O)N(C)N=C2c2ccccc2)C1=O` (centres undefined) was tested, and the TGI (786-0 renal) was > 100 µM, the TGI (A498 renal) was > 100 µM and the TGI (A549 NSCLC) was > 100 µM. The TGI (ACHN renal) was > 100 µM, the TGI (BT-549 breast) was > 100 µM and the TGI (CAKI-1 renal) was > 100 µM. For the same compound, the TGI (CCRF-CEM leukemia) was 60.1 µM, the TGI (COLO 205 colon) was > 100 µM and the TGI (DU-145 prostate) was > 100 µM. For the same compound, the TGI (EKVX NSCLC) was > 100 µM, the TGI (HCC-2998 colon) was > 100 µM and the TGI (HCT-116 colon) was > 100 µM. For the same compound, the TGI (HCT-15 colon) was > 100 µM, the TGI (HL-60(TB) leukemia) was 52 µM and the TGI (HOP-62 NSCLC) was > 100 µM. The TGI (HOP-92 NSCLC) was > 100 µM, the TGI (HS 578T breast) was > 100 µM and the TGI (HT29 colon) was > 100 µM. The TGI (IGROV1 ovarian) was > 31.6 µM, the TGI (K-562 leukemia) was > 100 µM and the TGI (KM12 colon) was > 100 µM. The TGI (LOX IMVI melanoma) was 77.4 µM, the TGI (M14 melanoma) was > 100 µM and the TGI (MALME-3M melanoma) was > 100 µM. The TGI (MCF7 breast) was > 100 µM, the TGI (MDA-MB-231 breast) was > 100 µM and the TGI (MDA-MB-435) was > 100 µM. The TGI (MDA-N) was > 100 µM, the TGI (MOLT-4 leukemia) was 72.7 µM and the TGI (NCI-H226 lung) was > 96.5 µM. The TGI (NCI-H23 lung) was > 100 µM, the TGI (NCI-H460 lung) was > 100 µM and the TGI (NCI-H522 lung) was > 100 µM. The TGI (NCI/ADR-RES ovarian) was > 100 µM, the TGI (OVCAR-3 ovarian) was > 100 µM and the TGI (OVCAR-4 ovarian) was > 100 µM. The TGI (OVCAR-5 ovarian) was > 100 µM, the TGI (OVCAR-8 ovarian) was > 100 µM and the TGI (PC-3 prostate) was > 100 µM. The TGI (RPMI-8226 leukemia) was > 100 µM, the TGI (RXF 393 renal) was > 100 µM and the TGI (SF-268 CNS) was > 100 µM. The TGI (SF-295 CNS) was > 100 µM, the TGI (SF-539 CNS) was > 100 µM and the TGI (SK-MEL-2 melanoma) was > 100 µM. For the same compound, the TGI (SK-MEL-28 melanoma) was > 100 µM, the TGI (SK-MEL-5 melanoma) was > 100 µM and the TGI (SK-OV-3 ovarian) was > 100 µM. The TGI (SN12C renal) was > 100 µM, the TGI (SNB-19 CNS) was > 100 µM and the TGI (SNB-75 CNS) was > 100 µM. The TGI (SW-620 colon) was > 100 µM, the TGI (T-47D breast) was > 100 µM and the TGI (TK-10 renal) was > 100 µM. For the same compound, the TGI (U251 CNS) was > 100 µM, the TGI (UACC-257 melanoma) was > 100 µM and the TGI (UACC-62 melanoma) was > 100 µM. For the same compound, the TGI (UO-31 renal) was > 100 µM.

In the case of `CCCCOCOc1ccccc1P1(=O)COc2ccccc2OC1`, the TGI (786-0 renal) is reported as > 100 µM, the TGI (A549 NSCLC) is reported as > 100 µM and the TGI (ACHN renal) is reported as > 100 µM. The TGI (BT-549 breast) was > 100 µM, the TGI (CAKI-1 renal) was > 100 µM and the TGI (CCRF-CEM leukemia) was > 100 µM. For the same compound, the TGI (COLO 205 colon) was > 100 µM, the TGI (DU-145 prostate) was > 100 µM and the TGI (EKVX NSCLC) was > 100 µM. The TGI (HCC-2998 colon) was > 100 µM, the TGI (HCT-116 colon) was > 100 µM and the TGI (HCT-15 colon) was > 100 µM. For the same compound, the TGI (HL-60(TB) leukemia) was > 100 µM, the TGI (HOP-62 NSCLC) was > 100 µM and the TGI (HOP-92 NSCLC) was > 100 µM. The TGI (HS 578T breast) was > 100 µM, the TGI (HT29 colon) was > 100 µM and the TGI (IGROV1 ovarian) was > 100 µM. The TGI (K-562 leukemia) was > 100 µM, the TGI (KM12 colon) was > 100 µM and the TGI (LOX IMVI melanoma) was > 100 µM. The TGI (M14 melanoma) was > 100 µM, the TGI (MALME-3M melanoma) was > 100 µM and the TGI (MCF7 breast) was > 100 µM. For the same compound, the TGI (MDA-MB-231 breast) was > 100 µM, the TGI (MDA-MB-435) was > 100 µM and the TGI (MDA-N) was > 100 µM. For the same compound, the TGI (NCI-H23 lung) was > 100 µM, the TGI (NCI-H460 lung) was > 100 µM and the TGI (NCI/ADR-RES ovarian) was > 100 µM. The TGI (OVCAR-3 ovarian) was > 100 µM, the TGI (OVCAR-4 ovarian) was > 100 µM and the TGI (OVCAR-5 ovarian) was > 100 µM. For the same compound, the TGI (PC-3 prostate) was > 100 µM, the TGI (RPMI-8226 leukemia) was > 100 µM and the TGI (RXF 393 renal) was > 100 µM. For the same compound, the TGI (SF-268 CNS) was > 100 µM, the TGI (SF-295 CNS) was > 100 µM and the TGI (SF-539 CNS) was > 100 µM. The TGI (SK-MEL-2 melanoma) was > 100 µM, the TGI (SK-MEL-28 melanoma) was > 100 µM and the TGI (SK-MEL-5 melanoma) was > 100 µM. For the same compound, the TGI (SK-OV-3 ovarian) was > 100 µM, the TGI (SN12C renal) was > 100 µM and the TGI (SNB-19 CNS) was > 100 µM. For the same compound, the TGI (SNB-75 CNS) was > 100 µM, the TGI (SR leukemia) was > 100 µM and the TGI (SW-620 colon) was > 100 µM. For the same compound, the TGI (T-47D breast) was > 100 µM, the TGI (TK-10 renal) was 94.1 µM and the TGI (U251 CNS) was > 100 µM. The TGI (UACC-257 melanoma) was > 100 µM, the TGI (UACC-62 melanoma) was > 100 µM and the TGI (UO-31 renal) was > 100 µM.
